According to patent US20230256058A1 (MAPI PHARMA LTD., priority 2020, published 2023):

Tests used:
[1] = cited from earlier work
[2] = Plasma concentrations of liraglutide formulations in db/db mice; type: in vivo; conditions: 200 μg/kg SC daily
Protocol: Treatment Groups: 1. Naïve control normal mice (n=6) • 2. Placebo (vehicle) control db/db mice (n=8) • 3.
• Ad lib fed blood glucose levels were recorded every 3rd day throughout the study period i.e. on Day-1, Day-3, Day-6, Day-9, Day-12, Day-15, Day-18, Day-21, Day-24, and Day-27. […] (before treatment) and 3 hr. post treatment. • On Day-1 and Day-28, blood samples were collected for the measurement of HbA1C levels. • Body weight and feed intake were recorded every day throughout treatment period.

[3] = in vivo; cited from earlier work

Compound | Steady state therapeutic plasma concentration ([1]; VICTOZA Prescribing Information) | Human range for clinically effective concentrations ([1]; human, Ingwersen S. H. et al. J. Clin. Pharmacol. 2012) [nmol/L] | Plasma levels (in words) ([2]; post 3 hr. of injection) | Plasma levels (in words) ([2]; post 24 hr. of treatment) | Pharmacokinetic half-life [3] [min]
CCCCCCCCCCCCCCCC(=O)N[C@@H](CCC(=O)NCCCC[C@H](NC(=O)[C@H](C)NC(=O)[C@H](C)NC(=O)[C@H](CCC(N)=O)NC(=O)CNC(=O)[C@H](CCC(=O)O)NC(=O)[C@H](CC(C)C)NC(=O)[C@H](Cc1ccc(O)cc1)NC(=O)[C@H](CO)NC(=O)[C@H](CO)NC(=O)[C@@H](NC(=O)[C@H](CC(=O)O)NC(=O)[C@H](CO)NC(=O)[C@@H](NC(=O)[C@H](Cc1ccccc1)NC(=O)[C@@H](NC(=O)CNC(=O)[C@H](CCC(=O)O)NC(=O)[C@H](C)NC(=O)[C@@H](N)Cc1cnc[nH]1)[C@@H](C)O)[C@@H](C)O)C(C)C)C(=O)N[C@@H](CCC(=O)O)C(=O)N[C@@H](Cc1ccccc1)C(=O)N[C@H](C(=O)N[C@@H](C)C(=O)N[C@@H](Cc1c[nH]c2ccccc12)C(=O)N[C@@H](CC(C)C)C(=O)N[C@H](C(=O)N[C@@H](CCCNC(=N)N)C(=O)NCC(=O)N[C@@H](CCCNC(=N)N)C(=O)NCC(=O)O)C(C)C)[C@@H](C)CC)C(=O)O [L-API, liraglutide] | about 128 ng/mL | 5 to 45 | increase in plasma levels | detectable plasma levels | –
GLP-1 | – | – | – | – | 2 to 5
